System: Aβ42 levels in the extracellular medium
Assay: FRET (HTRF) assay, Aβ42 level of the extracellular medium of SH-SY5Y-APP cells
Type: cell-based
Conditions: Homo sapiens, concentration at which reduction of Aβ42 level was half of the maximum reduction, read-out: Ab42 Potency
Description: Compounds were evaluated for activity in modulating Aβ42 and Aβ40 levels in the extracellular medium using a homogeneous time-resolved fluorescence (HTRF) assay as follows.
For the HTRF assay, either 5 or 10 μl of supernatant from treated cells was added to 10 or 15 μl of labeled antibody pairs, for a total volume of 20 μl, and incubated for 20-24 hours at 4° C. The labeled antibody pairs were either 8000 pg B436-XL665 and 400 pg B113 Europium, for assessing Aβ40 levels, or 8000 pg B436-XL665 and 400 pg A387 Europium, for assessing Aβ42 levels, diluted in 50 mM NaPO4, 0.2% BSA, 0.5M KF, pH 7. The fluorescence was read on a BMG Rubystar at 620 nm and 665 nm.

| Structure (SMILES) | EC50 [µM] |
| --- | --- |
| Cc1cn(-c2ccc(-c3csc(Nc4ccc(N5CCOCC5)c(Cl)c4)n3)c(C(F)(F)F)c2)cn1 [Compound 229] | 5.1 to 10 |
| Clc1cccc(Nc2nc(-c3ccc4c(c3)OCO4)cs2)c1 [Compound 154] | 10.1 to 30 |
| CCN(CC)c1ccc(-c2csc(Nc3ccc(O)cc3)n2)cc1 [Compound 123] | 10.1 to 30 |
| NC(=O)c1ncn(-c2ccc(-c3csc(Nc4ccc(N5CCOCC5)c(Cl)c4)n3)cc2)n1 [Compound 233] | 1.1 to 5 |
| Cc1cn(-c2ncc(-c3csc(Nc4cc(C)c(C)cc4C)n3)cn2)cn1 [Compound 349] | < 0.2 |
| COc1ccc(-c2csc(Nc3cccc4[nH]ncc34)n2)c(OC)c1 [Compound 171] | 1.1 to 5 |
| CCN(CC)c1cc(Nc2nc(-c3ccc(-n4ccnc4)nc3)cs2)c(C)cc1C [Compound 320] | < 0.2 |
| CCCN(c1nc(-c2ccc(-n3ccnc3)cc2)cs1)c1ccc(N(CC)CC)cc1C [Compound 175] | 10.1 to 30 |
| COc1ccccc1-c1csc(Nc2ccc(Br)cc2)n1 [Compound 130] | 10.1 to 30 |
| COc1cc(Nc2nc(-c3ccc(F)cc3)cs2)cc(OC)c1OC [Compound 108] | 5.1 to 10 |
| COc1cccc(CNc2nc(-c3ccc(N4CCN(C)CC4)cc3)cs2)c1 [Compound 135] | 1.1 to 5 |
| CCCN(c1ccc2c(c1)OCO2)c1nc(-c2ccc(N3CCN(C)CC3)cc2)cs1 [Compound 163] | 5.1 to 10 |
| COc1cc(C)c(Nc2nc(-c3ccc(-n4ccnc4)nc3)cs2)cc1C(C)C [Compound 319] | < 0.2 |
| c1cc2c(cc1Nc1nc(-c3ccc(N4CCN(CC5CC5)CC4)cc3)cs1)OCO2 [Compound 164] | 5.1 to 10 |
| COc1ccc(-c2csc(Nc3ccc(Br)cc3)n2)c(OC)c1 [Compound 129] | 0.2 to 1 |
| Cc1cccc(Nc2nc(-c3ccc(N4CCN(C)CC4)cc3)cs2)c1 [Compound 226] | 1.1 to 5 |
| COc1ccc(-c2csc(Nc3ccc(I)cc3)n2)c(OC)c1 [Compound 125] | 1.1 to 5 |
| COc1ccc(Nc2nc(-c3ccc(N4CCN(C)CC4)cc3)cs2)cc1 [Compound 137] | 1.1 to 5 |
| c1nc2cc(Nc3nc(-c4ccc5c(c4)OCO5)cs3)ccc2[nH]1 [Compound 161] | 5.1 to 10 |
| COc1cc(C)c(Nc2nc(-c3ccc(N4CCN(C)CC4)cc3)cs2)cc1C(C)C [Compound 321] | 0.2 to 1 |
| CN1CCC(CNc2ccc(Nc3nc(-c4ccc(-n5ccnc5)cc4)cs3)cc2)CC1 [Compound 188] | 1.1 to 5 |
| COc1cccc(Nc2nc(-c3ccc(N=Nc4ccccc4)cc3)cs2)c1 [Compound 131] | 10.1 to 30 |
| Oc1ccc(Nc2nc(-c3ccc(-c4ccccc4)cc3)cs2)cc1 [Compound 121] | 5.1 to 10 |

| Structure (SMILES) | EC50 [µM] |
| --- | --- |
| CCc1ccc(Nc2nc(-c3ccc(N4CCN(C)CC4)cc3)cs2)cc1 [Compound 132] | 10.1 to 30 |
| Oc1ccc(-c2csc(Nc3ccc4c(c3)OCO4)n2)cc1O [Compound 111] | 1.1 to 5 |
| c1cc(Nc2nc(-c3ccncc3)cs2)c2cn[nH]c2c1 [Compound 170] | 1.1 to 5 |
| Oc1ccc(Nc2nc(-c3ccc4ccccc4c3)cs2)cc1 [Compound 124] | 5.1 to 10 |
| c1cc2c(cc1Nc1nc(-c3ccc4c(c3)OCCO4)cs1)OCO2 [Compound 103] | 5.1 to 10 |
| COc1cc(C)c(Nc2nc(-c3ccc(-n4cnc(C)c4)cc3)c(C)s2)cc1C(C)C [Compound 297] | < 0.2 |
| COc1cc(Nc2nc(-c3ccc(OC(F)F)cc3)cs2)cc(OC)c1OC [Compound 109] | 10.1 to 30 |
| c1ccc2cc(-c3csc(Nc4ccc5[nH]cnc5c4)n3)ccc2c1 [Compound 159] | 5.1 to 10 |
| Cc1cc(N2CCN(Cc3ccccc3)CC2)ccc1Nc1nc(-c2ccc(-n3ccnc3)cc2)cs1 [Compound 201] | 1.1 to 5 |
| COc1ccc(Nc2nc(-c3ccc(Cl)cc3)co2)cc1 [Compound 339] | 1.1 to 5 |
| Brc1cccc(Nc2nc(-c3ccc(-n4ccnc4)cc3)cs2)c1 [Compound 212] | 1.1 to 5 |
| CCN(CC)c1cc(Nc2nc(-c3ccc(N4CCN(C)CC4)nc3)cs2)c(C)cc1C [Compound 332] | 1.1 to 5 |
| Cc1ccc(Nc2nc(-c3ccc(-n4ccnc4)cc3)co2)c(C)c1 [Compound 345] | 5.1 to 10 |
| CN1CCN(c2ccc(-c3csc(Nc4ccc5c(cnn5C)c4)n3)cc2)CC1 [Compound 140] | 5.1 to 10 |
| CN1CCN(c2ccc(-c3csc(Nc4ccc(Cl)c(Cl)c4)n3)cn2)CC1 [Compound 330] | 1.1 to 5 |
| Cc1cnn(-c2ccc(-c3nc(Nc4c(Cl)cc(Cl)cc4Cl)sc3C)cc2)c1 [Compound 246] | 1.1 to 5 |
| c1cn(-c2ccc(-c3csc(Nc4ccc5[nH]ccc5c4)n3)cc2)cn1 [Compound 143] | 1.1 to 5 |
| CN(C)S(=O)(=O)c1ccc(-c2csc(Nc3ccc(Cl)cc3)n2)cc1 [Compound 149] | 5.1 to 10 |
| CCN(CC)c1ccc(Nc2nc(-c3ccc(N4CCN(C)CC4)nc3)cs2)c(C)c1 [Compound 329] | 10.1 to 30 |
| CCN(c1ccc(N2CCOCC2)cc1)c1nc(-c2ccc(-n3ccnc3)cc2)cs1 [Compound 180] | 1.1 to 5 |
| CC(C)N(c1ccccc1)c1ccc(Nc2nc(-c3ccc(-n4ccnc4)cc3)cs2)cc1 [Compound 146] | 1.1 to 5 |
| COc1ccc(-c2csc(Nc3ccc(OC)c(OC)c3)n2)c(OC)c1 [Compound 101] | 1.1 to 5 |

The remaining lines, values ahead:

| EC50 [µM] | Structure (SMILES) |
| --- | --- |
| < 0.2 | CCN(C)c1cc(Nc2nc(-c3ccc(-n4cnc(C)c4)cc3)cs2)c(C)cc1C [Compound 335] |
| 1.1 to 5 | CCN(CC)c1ccc(C)c(Nc2nc(-c3ccc(-c4ccoc4)cc3)cs2)c1 [Compound 311] |
| 0.2 to 1 | CCCCN(CC)c1ccc(C)c(Nc2nc(-c3ccc(-n4cnc(C)c4)nc3)cs2)c1 [Compound 317] |
| < 0.2 | CCN(CC1CC1)c1cc(Nc2nc(-c3ccc(-n4cnc(C)c4)cc3)cs2)c(C)cc1C [Compound 350] |
| 0.2 to 1 | Cc1ccc(N2CCOCC2)cc1Nc1nc(-c2ccc(-n3ccnc3)cc2)cs1 [Compound 253] |
| < 0.2 | Cc1cn(-c2ccc(-c3csc(Nc4cc(N5CCCCC5)ccc4C)n3)cn2)cn1 [Compound 283] |
| 10.1 to 30 | CCN(CC)c1ccc(-c2csc(Nc3ccc4[nH]cnc4c3)n2)cc1 [Compound 158] |
| 0.2 to 1 | CCN(CCO)c1ccc(Nc2nc(-c3ccc(-n4cnc(C)c4)cc3)cs2)c(C)c1 [Compound 204] |
| < 0.2 | CCN(CC)c1ccc(F)c(Nc2nc(-c3ccc(-n4cnc(C)c4)nc3)cs2)c1 [Compound 314] |
| < 0.2 | CCOc1cc(C)c(Nc2nc(-c3ccc(-n4cnc(C)c4)nc3)cs2)cc1C [Compound 287] |
| < 0.2 | CCN(C)c1cc(Nc2nc(-c3ccc(-n4cnc(C)c4)nc3)cs2)c(C)cc1C [Compound 336] |
| < 0.2 | CCN(CC)c1ccc(Nc2nc(-c3cnc(-n4cnc(C)c4)nc3)cs2)c(C)c1 [Compound 342] |
| < 0.2 | Cc1ccc(N(C)CC2CC2)cc1Nc1nc(-c2ccc(-n3ccnc3)cc2)cs1 [Compound 304] |
| 5.1 to 10 | Cc1cn(-c2ccc(-c3csc(Nc4cc5cn[nH]c5cc4C)n3)cn2)cn1 [Compound 331] |
| 10.1 to 30 | FC(F)(F)c1cc(NC2CCCC2)ccc1Nc1nc(-c2ccc(-n3ccnc3)cc2)cs1 [Compound 220] |
| 1.1 to 5 | CCN(CC)c1ccc(Nc2nc(-c3ccc(-n4cc(C)nc4C)cc3)cs2)c(C)c1 [Compound 249] |
| 1.1 to 5 | Cc1cc(NCCN(C)C)ccc1Nc1nc(-c2ccc(-n3ccnc3)cc2)cs1 [Compound 202] |
| 0.2 to 1 | Cc1ccc(N2CCN(C)CC2)cc1Nc1nc(-c2ccc(-n3ccnc3)cc2)cs1 [Compound 255] |

| EC50 [µM] | Structure (SMILES) |
| --- | --- |
| 1.1 to 5 | CCN(CC)c1ccc(Nc2nc(-c3ccc(-n4ccnc4)cc3)cs2)cc1 [Compound 177] |
| 1.1 to 5 | CCN(CCO)c1ccc(Nc2nc(-c3ccc(-n4ccnc4)cc3)cs2)c(C)c1 [Compound 203] |
| < 0.2 | CCN(C)c1cc(Nc2nc(-c3ccc(-n4ccnc4)cc3)cs2)c(C)cc1C [Compound 334] |
| < 0.2 | Cc1cn(-c2ccc(-c3csc(Nc4cc(C(C)C)ccc4C)n3)cc2)cn1 [Compound 326] |
| < 0.2 | CCN(CC)c1ccc(C)c(Nc2nc(-c3ccc(-n4cnc(C)c4)nc3)cs2)c1 [Compound 270] |
| < 0.2 | Cc1ccc(C(C)C)cc1Nc1nc(-c2ccc(-n3ccnc3)cc2)cs1 [Compound 324] |
| 1.1 to 5 | CCN(CC)c1ccc(Nc2nc(-c3ccc(-n4ccnc4)cc3)cs2)c(C(F)(F)F)c1 [Compound 218] |
| < 0.2 | Cc1cn(-c2ccc(-c3csc(Nc4cc(C)c(OCC5CC5)cc4C)n3)cc2)cn1 [Compound 280] |
| 5.1 to 10 | CCN(CC)c1ccc(Nc2nc(-c3ccc(-c4c[nH]c(C)n4)cc3)cs2)c(C)c1 [Compound 248] |
| < 0.2 | COc1ccc(C)c(Nc2nc(-c3ccc(-n4cnc(C)c4)cc3)cs2)c1 [Compound 352] |
| 1.1 to 5 | CCN(CC)c1ccc(Nc2nc(-c3ccc(-n4cnc(-c5ccccc5)c4)cc3)cs2)c(C)c1 [Compound 147] |
| < 0.2 | CCN(CC)c1ccc(C)c(Nc2nc(-c3ccc(-n4cnc(C)c4)cc3)cs2)c1 [Compound 268] |
| < 0.2 | Cc1cn(-c2ccc(-c3csc(Nc4cc(N(C)C)ccc4C)n3)cn2)cn1 [Compound 282] |
| 1.1 to 5 | Cc1ccc(C(C)C)cc1Nc1nc(-c2ccc(-n3ccnc3)nc2)cs1 [Compound 325] |
| 1.1 to 5 | CCN(CC)CCN(C)c1ccc(Nc2nc(-c3ccc(-n4ccnc4)cc3)cs2)c(C(F)(F)F)c1 [Compound 219] |
| < 0.2 | Cc1cn(-c2ccc(-c3csc(Nc4cc(N(C)CC5CC5)ccc4C)n3)cc2)cn1 [Compound 305] |
| 10.1 to 30 | COc1cccc(Nc2nc(-c3ccc(-n4ccnc4)cc3)cs2)c1 [Compound 181] |
| < 0.2 | CCN(CC)c1ccc(C)c(Nc2nc(-c3ccc(-n4cc(C)nn4)cc3)cs2)c1 [Compound 346] |

Reference: patent publication US8017629B2, “Compounds and uses thereof in modulating amyloid β” (Neurogenetic Pharmaceuticals, Inc., priority 2003, dated 2011)
